According to US8835432B2, “Heterocyclic compounds and their uses” (Amgen Inc., priority 2012, dated 2014):

What was measured:
Human B cells = Human B cells proliferation stimulated by anti-IgM; type: cell-based; conditions: Hu B Cell anti-IgM, note under the cell, read-out: on target anti-IgM (Hu B Cell anti-IgM)
Method: Human B Cells Proliferation Stimulate by Anti-IgM
Isolate PBMCs from Leukopac or from human fresh blood. Isolate human B cells by using Miltenyi protocol and B cell isolation kit II.-human B cells were Purified by using AutoMacs.column.
Activation of Human B Cells
Use 96 well Flat bottom plate, plate 50000/well purified B cells in B cell proliferation medium (DMEM+5% FCS, 10 mM Hepes, 50 μM 2-mercaptoethanol); 150 μL medium contain 250 ng/mL CD40L-LZ recombinant protein (Amgen) and 2 μg/mL anti-Human IgM antibody (Jackson ImmunoReseach Lab.#109-006-129), mixed with 50 μL B cell medium containing PI3K inhibitors and incubate 72 h at 37° C. incubator. After 72 h, pulse labeling B cells with 0.5-1 uCi/well ^3H thymidine for overnight ˜18 h, and harvest cell using TOM harvester.

PI3Kg = molecular target: T1, PI3Kg (Homo sapiens, UniProt P48736); assay: In vitro enzyme assay, PI3K gamma; type: biochemical
T1 construct: Truncated PI3Kγ, residues 114-1102, N-terminally labeled with polyHis tag; polyHis (N); made in house; host or cells: Hi5 insect cells (baculovirus)
Method: (§1) Full length p110 subunits of PI3k α, β and δ, N-terminally labeled with polyHis tag, were coexpressed with p85 with Baculo virus expression vectors in sf9 insect cells. P110/p85 heterodimers were purified by sequential Ni-NTA, Q-HP, Superdex-100 chromatography. Purified α, β and δ isozymes were stored at −20° C. in 20 mM Tris, pH 8, 0.2M NaCl, 50% glycerol, 5 mM DTT, 2 mM Na cholate. Truncated PI3Kγ, residues 114-1102, N-terminally labeled with polyHis tag, was expressed with Baculo virus in Hi5 insect cells. The γ isozyme was purified by sequential Ni-NTA, Superdex-200, Q-HP chromatography. The γ isozyme was stored frozen at −80° C. in NaH2PO4, pH 8, 0.2M NaCl, 1% ethylene glycol, 2 mM β-mercaptoethanol.
(§2) Assays were performed in 25 μL with the above final concentrations of components in white polyproplyene plates (Costar 3355). Phospatidyl inositol phosphoacceptor, PtdIns(4,5)P2 P4508, was from Echelon Biosciences. The ATPase activity of the alpha and gamma isozymes was not greatly stimulated by PtdIns(4,5)P2 under these conditions and was therefore omitted from the assay of these isozymes. Test compounds were dissolved in dimethyl sulfoxide and diluted with three-fold serial dilutions. The compound in DMSO (1 μL) was added per test well, and the inhibition relative to reactions containing no compound, with and without enzyme was determined After assay incubation at rt, the reaction was stopped and residual ATP determined by addition of an equal volume of a commercial ATP bioluminescence kit (Perkin Elmer EasyLite) according to the manufacturer's instructions, and detected using a AnalystGT luminometer.

PI3Kb [1] = molecular target: T2, PI3Kb (Homo sapiens, UniProt P42338); assay: In vitro enzyme assay, PI3K beta; type: biochemical; set-up: Full length p110 subunits of PI3k α, β and δ, N-terminally labeled with polyHis tag; polyHis (N); made in house; host or cells: Sf9 insect cells (baculovirus); conditions: read-out: P13K b IC50
Method: as §1, §2

PI3Kb [2] = molecular target: T2, PI3Kb; assay: Forkhead translocation assay (MDA MB468 Forkhead-DiversaGFP cells); type: cell-based; set-up: endogenous in cells; host or cells: MDA MB468 (Forkhead-DiversaGFP) cells; conditions: first value of the cell; MDA468 forkhead; read-out: PI3KbMDA468 FH
Method: (§3) GFP Assays for Detecting Inhibition of Class Ia and Class III PI3K
Forkhead (FKHRL1) is a substrate for AKT1. It is cytoplasmic when phosphorylated by AKT (survival/growth). Inhibition of AKT (stasis/apoptosis)-forkhead translocation to the nucleus
Forkhead Translocation Assay (MDA MB468 Forkhead-DiversaGFP Cells)
Treat cells with compound in growth medium 1 h. Fix and image.

PI3K b = assay: In vitro enzyme assay, PI3K beta; type: biochemical; conditions: ratio of beta to delta IC50
Method: as §1, §2

PI3Ka = molecular target: T3, PI3Ka (Homo sapiens, UniProt P42336); assay: In vitro enzyme assay, PI3K alpha; type: biochemical
T3 construct: Full length p110 subunits of PI3k α, β and δ, N-terminally labeled with polyHis tag; polyHis (N); made in house; host or cells: Sf9 insect cells (baculovirus)
Method: as §1, §2

PI3K d = molecular target: T4, PI3K d (Homo sapiens, UniProt O00329); assay: In vitro enzyme assay, PI3K delta; type: biochemical
T4 construct: Full length p110 subunits of PI3k α, β and δ, N-terminally labeled with polyHis tag; polyHis (N); made in house; host or cells: Sf9 insect cells (baculovirus)
Method: as §1, §2

PI3KIII = molecular target: T5, PI3KIII (Homo sapiens, UniProt Q8NEB9); assay: Class III PI(3)P assay (U20S EGFP-2XFYVE cells); type: cell-based
T5 construct: host or cells: U2OS EGFP-2XFYVE cells
Method: as §3
FYVE domains bind to PI(3)P. the majority is generated by constitutive action of PI3K Class III
Class III PI(3)P assay (U20S EGFP-2XFYVE Cells/GE Healthcare)
Wash cells with assay buffer. Treat with compounds in assay buffer 1 h. Fix and image.
Control for all 3 assays is […] Wortmannin:
PI(3)P depleted from endosomes

murine model of asthma = conditions: ovalbumin-induced airway inflammation; cited from earlier work
protein kinases = conditions: cited from earlier work
p110δ = p110δ (Homo sapiens, UniProt O00329); conditions: cited from earlier work
Sequence of p110δ (O00329 whole entry, species assumed): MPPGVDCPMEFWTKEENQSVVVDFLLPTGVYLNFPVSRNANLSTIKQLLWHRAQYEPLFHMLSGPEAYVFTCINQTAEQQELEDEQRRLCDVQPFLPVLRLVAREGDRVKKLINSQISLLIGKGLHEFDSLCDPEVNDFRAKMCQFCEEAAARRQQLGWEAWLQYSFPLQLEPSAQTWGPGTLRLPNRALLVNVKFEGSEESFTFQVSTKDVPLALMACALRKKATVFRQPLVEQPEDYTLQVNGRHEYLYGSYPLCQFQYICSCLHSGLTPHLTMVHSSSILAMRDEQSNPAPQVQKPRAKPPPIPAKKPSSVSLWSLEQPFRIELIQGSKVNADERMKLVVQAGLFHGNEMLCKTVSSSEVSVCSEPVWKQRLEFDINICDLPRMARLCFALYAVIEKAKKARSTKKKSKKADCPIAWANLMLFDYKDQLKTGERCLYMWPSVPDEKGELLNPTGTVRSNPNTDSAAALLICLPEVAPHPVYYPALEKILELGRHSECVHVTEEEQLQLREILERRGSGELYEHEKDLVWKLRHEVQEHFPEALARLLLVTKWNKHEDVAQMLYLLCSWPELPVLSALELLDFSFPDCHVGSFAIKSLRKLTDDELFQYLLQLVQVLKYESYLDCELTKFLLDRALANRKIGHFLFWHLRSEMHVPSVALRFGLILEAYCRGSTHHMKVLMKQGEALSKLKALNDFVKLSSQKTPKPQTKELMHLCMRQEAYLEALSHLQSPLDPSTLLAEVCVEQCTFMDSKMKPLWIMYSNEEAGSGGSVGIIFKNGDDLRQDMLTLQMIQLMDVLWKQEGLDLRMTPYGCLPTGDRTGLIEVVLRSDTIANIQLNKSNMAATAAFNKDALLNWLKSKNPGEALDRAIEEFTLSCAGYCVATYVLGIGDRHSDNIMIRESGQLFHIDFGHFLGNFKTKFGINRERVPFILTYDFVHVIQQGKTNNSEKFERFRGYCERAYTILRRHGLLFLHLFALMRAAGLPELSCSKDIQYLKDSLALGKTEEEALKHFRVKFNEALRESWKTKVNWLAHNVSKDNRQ

T1 sequence (P48736 114-1102): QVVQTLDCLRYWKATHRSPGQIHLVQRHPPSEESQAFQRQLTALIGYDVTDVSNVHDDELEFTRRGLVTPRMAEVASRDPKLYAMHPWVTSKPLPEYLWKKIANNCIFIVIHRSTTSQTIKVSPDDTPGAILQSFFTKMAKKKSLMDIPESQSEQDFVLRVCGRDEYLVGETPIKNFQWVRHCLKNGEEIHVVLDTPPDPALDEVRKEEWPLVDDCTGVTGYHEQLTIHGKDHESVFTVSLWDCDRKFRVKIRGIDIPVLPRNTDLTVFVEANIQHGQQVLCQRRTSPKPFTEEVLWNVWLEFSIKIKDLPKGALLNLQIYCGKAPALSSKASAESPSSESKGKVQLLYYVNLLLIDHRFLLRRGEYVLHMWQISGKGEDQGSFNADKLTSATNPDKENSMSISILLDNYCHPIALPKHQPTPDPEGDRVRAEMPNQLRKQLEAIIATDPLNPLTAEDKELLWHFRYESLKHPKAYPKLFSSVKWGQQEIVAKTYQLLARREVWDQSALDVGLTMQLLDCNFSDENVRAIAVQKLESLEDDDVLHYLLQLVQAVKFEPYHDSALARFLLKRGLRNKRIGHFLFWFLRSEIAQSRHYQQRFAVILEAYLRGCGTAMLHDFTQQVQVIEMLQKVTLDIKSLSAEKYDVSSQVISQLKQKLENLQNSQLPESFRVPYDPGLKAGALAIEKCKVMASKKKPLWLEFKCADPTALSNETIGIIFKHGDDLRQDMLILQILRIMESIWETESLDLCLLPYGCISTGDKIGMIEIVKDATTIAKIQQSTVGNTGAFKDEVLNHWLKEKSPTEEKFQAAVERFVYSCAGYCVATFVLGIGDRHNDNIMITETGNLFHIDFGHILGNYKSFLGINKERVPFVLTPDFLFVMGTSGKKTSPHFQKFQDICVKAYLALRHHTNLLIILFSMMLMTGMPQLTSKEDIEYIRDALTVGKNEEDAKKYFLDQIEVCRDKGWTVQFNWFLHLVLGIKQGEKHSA
T2 sequence (P42338 whole entry): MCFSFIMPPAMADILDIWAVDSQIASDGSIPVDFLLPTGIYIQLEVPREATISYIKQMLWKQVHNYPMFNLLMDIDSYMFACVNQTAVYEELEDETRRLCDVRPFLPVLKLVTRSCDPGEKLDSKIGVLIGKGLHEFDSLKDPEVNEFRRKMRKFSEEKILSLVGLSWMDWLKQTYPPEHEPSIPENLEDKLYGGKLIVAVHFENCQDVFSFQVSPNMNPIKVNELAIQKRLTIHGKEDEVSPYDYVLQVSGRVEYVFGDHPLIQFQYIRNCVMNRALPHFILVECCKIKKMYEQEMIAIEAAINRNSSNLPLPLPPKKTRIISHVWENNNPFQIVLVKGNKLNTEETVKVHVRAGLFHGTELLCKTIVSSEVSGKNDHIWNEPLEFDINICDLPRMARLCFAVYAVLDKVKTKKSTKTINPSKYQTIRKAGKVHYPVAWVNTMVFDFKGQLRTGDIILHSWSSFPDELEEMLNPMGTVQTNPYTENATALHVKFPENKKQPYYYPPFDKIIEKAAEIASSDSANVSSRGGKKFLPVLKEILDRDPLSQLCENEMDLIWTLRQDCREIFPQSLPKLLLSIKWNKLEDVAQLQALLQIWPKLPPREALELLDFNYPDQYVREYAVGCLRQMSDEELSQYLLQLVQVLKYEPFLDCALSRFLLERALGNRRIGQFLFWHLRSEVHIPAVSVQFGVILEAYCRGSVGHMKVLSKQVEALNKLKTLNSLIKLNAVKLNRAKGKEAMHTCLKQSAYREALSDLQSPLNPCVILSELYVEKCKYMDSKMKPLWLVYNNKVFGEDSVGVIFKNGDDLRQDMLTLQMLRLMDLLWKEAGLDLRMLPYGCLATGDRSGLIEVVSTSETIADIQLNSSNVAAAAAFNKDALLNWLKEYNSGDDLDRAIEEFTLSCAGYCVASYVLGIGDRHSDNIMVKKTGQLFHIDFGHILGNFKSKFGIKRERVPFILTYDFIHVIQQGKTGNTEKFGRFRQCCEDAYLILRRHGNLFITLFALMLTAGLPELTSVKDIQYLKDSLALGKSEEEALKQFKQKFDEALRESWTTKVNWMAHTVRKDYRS
T2 sequence (P27986 whole entry partner): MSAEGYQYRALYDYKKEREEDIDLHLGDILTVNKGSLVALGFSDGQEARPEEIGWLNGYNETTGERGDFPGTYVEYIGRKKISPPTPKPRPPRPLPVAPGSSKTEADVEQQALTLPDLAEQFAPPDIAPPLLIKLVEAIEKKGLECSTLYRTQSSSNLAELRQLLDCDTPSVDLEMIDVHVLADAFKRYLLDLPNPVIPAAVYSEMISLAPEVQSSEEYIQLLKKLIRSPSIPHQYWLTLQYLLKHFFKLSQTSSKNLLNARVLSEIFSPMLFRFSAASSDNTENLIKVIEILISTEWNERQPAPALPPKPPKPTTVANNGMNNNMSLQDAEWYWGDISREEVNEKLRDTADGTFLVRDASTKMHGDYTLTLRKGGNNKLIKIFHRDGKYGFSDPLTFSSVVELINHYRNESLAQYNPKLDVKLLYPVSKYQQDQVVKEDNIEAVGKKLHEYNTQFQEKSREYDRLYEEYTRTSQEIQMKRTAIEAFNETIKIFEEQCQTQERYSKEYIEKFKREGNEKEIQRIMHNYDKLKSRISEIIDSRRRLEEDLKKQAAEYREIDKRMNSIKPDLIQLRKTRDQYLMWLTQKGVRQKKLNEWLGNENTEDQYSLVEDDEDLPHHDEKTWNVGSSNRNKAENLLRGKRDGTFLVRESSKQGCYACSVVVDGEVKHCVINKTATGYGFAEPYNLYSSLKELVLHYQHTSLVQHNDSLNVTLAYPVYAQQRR
T3 sequence (P42336 whole entry): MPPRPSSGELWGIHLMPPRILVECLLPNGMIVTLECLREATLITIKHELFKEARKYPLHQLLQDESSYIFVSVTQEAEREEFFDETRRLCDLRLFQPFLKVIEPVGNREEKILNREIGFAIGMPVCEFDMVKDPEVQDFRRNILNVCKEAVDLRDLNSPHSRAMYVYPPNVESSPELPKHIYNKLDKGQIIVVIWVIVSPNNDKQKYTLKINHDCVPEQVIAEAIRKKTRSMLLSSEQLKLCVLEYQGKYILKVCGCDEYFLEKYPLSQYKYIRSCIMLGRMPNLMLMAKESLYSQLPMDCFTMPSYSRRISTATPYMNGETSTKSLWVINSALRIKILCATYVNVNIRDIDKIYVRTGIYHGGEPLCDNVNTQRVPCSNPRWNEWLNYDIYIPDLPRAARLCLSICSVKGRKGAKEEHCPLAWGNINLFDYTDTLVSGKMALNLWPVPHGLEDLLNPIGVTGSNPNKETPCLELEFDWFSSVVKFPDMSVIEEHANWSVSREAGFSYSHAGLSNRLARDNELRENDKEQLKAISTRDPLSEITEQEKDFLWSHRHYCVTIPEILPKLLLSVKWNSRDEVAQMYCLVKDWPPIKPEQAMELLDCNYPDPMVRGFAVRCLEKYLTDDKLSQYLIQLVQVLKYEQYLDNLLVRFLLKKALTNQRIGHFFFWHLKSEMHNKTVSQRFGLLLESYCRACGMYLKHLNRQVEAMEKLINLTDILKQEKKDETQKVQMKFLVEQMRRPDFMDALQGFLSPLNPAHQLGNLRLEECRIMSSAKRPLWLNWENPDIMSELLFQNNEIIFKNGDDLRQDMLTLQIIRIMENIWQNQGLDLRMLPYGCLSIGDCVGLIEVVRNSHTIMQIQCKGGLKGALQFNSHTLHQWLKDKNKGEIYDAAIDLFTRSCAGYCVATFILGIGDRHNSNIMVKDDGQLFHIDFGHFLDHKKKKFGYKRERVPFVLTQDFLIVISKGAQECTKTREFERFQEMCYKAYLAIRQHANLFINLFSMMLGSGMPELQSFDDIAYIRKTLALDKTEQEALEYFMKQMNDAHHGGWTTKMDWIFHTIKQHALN
T3 sequence (P27986 whole entry partner): as the sequence (P27986 whole entry partner) above
T4 sequence (O00329 whole entry): as the sequence (O00329 whole entry, species assumed) above
T4 sequence (P27986 whole entry partner): as the sequence (P27986 whole entry partner) above

Compound	IC50 (Human B cells)	IC50 (PI3Kg)	PI3K: g/d (PI3Kg; ratio of gamma to delta IC50)	IC50 (PI3Kb [1])	IC50 (PI3Kb [2])	PI3K: b/d (PI3K b)	PI3Ka IC50 (PI3Ka)	PI3K: a/d (PI3Ka; ratio of alpha to delta IC50)	IC50 (PI3K d)	IC50 (PI3KIII)	inflammation and disease in a murine model of asthma (murine model of asthma)	activity against any protein kinases tested (protein kinases)	inhibits p110δ (p110δ)	selectivity against p110α (p110δ; delta versus p110α)	selective against p110β (p110δ; delta versus p110β)	selectivity against p110γ (p110δ; delta versus p110γ)
C[C@H](Nc1ncnc(N)c1C#N)c1nc2ccc(F)cc2nc1-c1ccccn1 [Example 7, (S)-4-Amino-6-((1-(6-fluoro-3-(pyridin-2-yl)quinoxalin-2-yl)ethyl)amino)-pyrimidine-5-carbonitrile]	0.0104 µM	3.9 µM	333	2.49 µM	> 10 µM	213	12.7000 µM	1085	0.0117 µM	> 10 µM	–	–	–	–	–	–
Cc1ccccc1-n1c(Cn2cnc3c(N)ncnc32)nc2cccc(C)c2c1=O [IC87114]	–	–	–	–	–	–	–	–	–	–	significantly ameliorate inflammation and disease	no activity	high nanomolar range (triple digit)	greater than 100 fold	52 fold	approx. 8 fold
